Experimental data from US20030158250A1, “Agents correcting gene expression regulatory error” (priority 2000, published 2003).

Legend:
Assay type in all cases: cell-based
interleukin-1α (IL-1α) = experiment: RT-PCR expression level of IL-1α gene in monocytes; settings: human monocytes, 30 PCR cycles
Method: (§1) Four-hundred milliliters of blood was collected from a human normal individual donor. The collected blood was diluted 2-folds with PBS(−), overlaid on Ficoll-paque (manufactured by Pharmacia), and centrifuged at 500×g for 20 minutes. The peripheral blood mononuclear cells (PBMCs) in the intermediate layer was collected with a pipette, and washed with RPMI 1640 medium (manufactured by Bio Whittaker). The collected PBMCs was suspended in a storage solution of 90% FCS (manufactured by JRH Biosciences)/10% dimethyl sulfoxide, and stored in liquid nitrogen. During the experiment, these stored PBMCs were rapidly melted in water bath at 37° C., and washed with RPMI 1640 medium containing 10 μg/ml Dnase (manufactured by Calbiochem). Thereafter, the number of living cells was calculated by trypan blue staining method, and subjected to each experiment.
(§2) PBMCs were suspended in RPMI 1640 medium containing 5% human serum of blood type-AB, 0.1 mM nonessential amino acid, 1 mM sodium pyruvate, 2 mM L-glutamine (hereinabove manufactured by Bio Whittaker), 10 mM HEPES (manufactured by nakalai tesque), and 1% streptomycin-penicillin (manufactured by Gibco BRL) (hereinafter simply referred to as “5HRPMI medium”) so as to have a concentration of 4×10^6 cells/ml. Thereafter, the suspension was spread on a 6-well cell culture plate (manufactured by Falcon) in a volume of 3 ml/well, and the cells were incubated in a wet-type incubator at 37° C. and 5% CO2 for 1.5 hours. After 1.5 hours, the non-adherent cells were removed by suction, and each well was washed with RPMI 1640 medium, and 2 ml of the 5HRPMI medium was added to the wells, to give monocytes.
(§3) To the monocytes obtained above was added in each well 8 μl of an aqueous DGE solution, or 8 μl of water as a control, and the cells were incubated in a wet-type incubator at 37° C. and 5% CO2 for 5 hours. Thereafter, with addition of 2 μl of a 1 μg/ml aqueous LPS solution or 2 μl of a 25 μM TPA dimethyl sulfoxide solution to each well, or with addition of neither of these substances thereto, the cells were cultured for additional 4 hours. Thereafter, RNA was prepared from each cell in accordance with the description of the kit using RNeasy Mini Kit (manufactured by QIAGEN, 74104). The group with addition of water alone or the aqueous DGE solution alone to the cells was set as a negative control, and the group with addition of water and the aqueous LPS solution or the aqueous TPA solution to the cells was set as a positive control.
(§4) A liquid mixture having a total volume of 60 μl of 0.5 μg of RNA prepared above, 10 mM Tris-HCl (pH 8.3), 50 mM KCl, 5 mM MgCl2, 1 mM dNTP mixtures, 150 pmol of Random 6 mers, 60 U Ribonuclease Inhibitor (manufactured by Takara Shuzo Co., Ltd., 2310A), and 15 U Reverse Transcriptase XL (AMV) (manufactured by Takara Shuzo Co., Ltd., 2620A) were incubated at 30° C. for 10 minutes and thereafter at 42° C. for 1 hour using a thermal cycler (GeneAmp PCR System 9600, manufactured by Applied Biosystems), and the mixture was heated at 99° C. for 5 minutes to deactivate the enzyme, to give cDNA.
(§5) Oligonucleotide primers for reaction of PCR were designed based on mRNA nucleotide sequence of each gene listed in the following tables, and synthesized in the same manner as above. In Tables 4 and 5, each gene evaluated in this Example, GenBank Accession NO, the name of oligonucleotide primers and SEQ ID NOs of the primers in Sequence Listing were listed. […]

[1] = test system: interleukin-7 receptor (IL-7r); experiment: RT-PCR expression level of IL-7r gene in monocytes; settings: human monocytes, 30 PCR cycles
Method: as §1, §2, §3, §4, §5

[2] = test system: liver and activation-regulated chemokine (LARC); experiment: RT-PCR expression level of LARC gene in monocytes; settings: human monocytes, 30 PCR cycles
Method: as §1, §2, §3, §4, §5

[3] = test system: macrophage inflammatory protein-2-β (MIP2β); experiment: RT-PCR expression level of MIP2β gene in monocytes; settings: human monocytes, 30 PCR cycles
Method: as §1, §2, §3, §4, §5

[4] = test system: growth regulated protein-1 (Gro1); experiment: RT-PCR expression level of Gro1 gene in monocytes; settings: human monocytes, 30 PCR cycles
Method: as §1, §2, §3, §4, §5

[5] = test system: matrix metalloproteinase-9 (MMP-9); experiment: RT-PCR expression level of MMP-9 gene in monocytes; settings: human monocytes, 30 PCR cycles
Method: as §1, §2, §3, §4, §5

[6] = test system: migration inhibitory factor-related protein-8 (MRP8); experiment: RT-PCR expression level of MRP8 gene in monocytes; settings: human monocytes, 30 PCR cycles
Method: as §1, §2, §3, §4, §5

lyzozyme (Lyz) = experiment: RT-PCR expression level of Lyz gene in monocytes; settings: human monocytes, 30 PCR cycles
Method: as §1, §2, §3, §4, §5

[7] = test system: GABA(A) receptor-associated protein (GABArp); experiment: RT-PCR expression level of GABArp gene in monocytes; settings: human monocytes, 30 PCR cycles
Method: as §1, §2, §3, §4, §5

[8] = test system: interferon-induced 17-kDa/15-kDa protein (IFNp15/p17); experiment: RT-PCR expression level of IFNp15/p17 gene in monocytes; settings: human monocytes, 30 PCR cycles
Method: as §1, §2, §3, §4, §5

[9] = test system: interferon-inducible protein p78 (IFNp78); experiment: RT-PCR expression level of IFNp78 gene in monocytes; settings: human monocytes, 30 PCR cycles
Method: as §1, §2, §3, §4, §5

CD37 antigen (CD37) = experiment: RT-PCR expression level of CD37 gene in monocytes; settings: human monocytes, 35 PCR cycles
Method: as §1, §2, §3, §4, §5

[10] = test system: Nef-associated factor-1 (NAF1); experiment: RT-PCR expression level of NAF1 gene in monocytes; settings: human monocytes, 30 PCR cycles
Method: as §1, §2, §3, §4, §5

[11] = test system: myeloid leukemia cell differentiation protein-1 (MCL1); experiment: RT-PCR expression level of MCL1 gene in monocytes; settings: human monocytes, 30 PCR cycles
Method: as §1, §2, §3, §4, §5

[12] = test system: signal peptidase complex (18 kDa) (SPC18); experiment: RT-PCR expression level of SPC18 gene in monocytes; settings: human monocytes, 30 PCR cycles
Method: as §1, §2, §3, §4, §5

[13] = substance added alone, Con. (water) +/−
[14] = substance added alone, Con. (water) +
[15] = substance added alone, Con. (water) −
[16] = L + D: DGE and LPS, LPS alone +++
[17] = T + D: DGE and TPA, TPA alone +
[18] = L + D: DGE and LPS, LPS alone ++
[19] = T + D: DGE and TPA, TPA alone ++
[20] = L + D: DGE and LPS, LPS alone −
[21] = L + D: DGE and LPS, LPS alone +/−
[22] = T + D: DGE and TPA, TPA alone +/−

In the case of “lipopolysaccharide [LPS, reference compound]”, the “expression level of IL-1α gene” value (interleukin-1α (IL-1α); [13]) is reported as “+++”, the “expression level of IL-7r gene” value [1, 13] is reported as “++” and the “expression level of LARC gene” value [2, 13] is reported as “+++”. The “expression level of MIP2β gene” value [3, 14] was “++”, the “expression level of Gro1 gene” value [4, 14] was “+++” and the “expression level of MMP-9 gene” value [5, 15] was “−”. The “expression level of MRP8 gene” value [6, 14] was “+/−”, the “expression level of Lyz gene” value (lyzozyme (Lyz); [14]) was “+/−” and the “expression level of GABArp gene” value [7, 14] was “+/−”. The “expression level of IFNp15/p17 gene” value [8, 14] was “+++”, the “expression level of IFNp78 gene” value [9, 14] was “++” and the “expression level of CD37 gene” value (CD37 antigen (CD37); [13]) was “−”. The “expression level of NAF1 gene” value [10, 14] was “++”, the “expression level of MCL1 gene” value [11, 14] was “+/−” and the “expression level of SPC18 gene” value [12, 14] was “+/−”.
With O=C1C=CC(CO)OC1O [DGE, L-glycero-1,5-epoxy-1αβ,6-dihydroxy-cis-hex-3-en-2-one] the “expression level of IL-1α gene” value (interleukin-1α (IL-1α); [16]) was “+/−”, the “expression level of IL-1α gene” value (interleukin-1α (IL-1α); [17]) was “−” and the “expression level of IL-1α gene” value (interleukin-1α (IL-1α); [13]) was “−”. The “expression level of IL-7r gene” value [1, 18] was “−”, the “expression level of IL-7r gene” value ([1]; T + D: DGE and TPA, TPA alone −) was “−” and the “expression level of IL-7r gene” value [1, 13] was “−”. For the same compound, the “expression level of LARC gene” value [2, 16] was “+”, the “expression level of LARC gene” value [2, 19] was “+” and the “expression level of LARC gene” value [2, 13] was “+/−”. For the same compound, the “expression level of MIP2β gene” value [3, 18] was “+”, the “expression level of MIP2β gene” value [3, 19] was “+” and the “expression level of MIP2β gene” value [3, 14] was “+”. For the same compound, the “expression level of Gro1 gene” value [4, 16] was “+”, the “expression level of Gro1 gene” value [4, 19] was “+” and the “expression level of Gro1 gene” value [4, 14] was “+”. For the same compound, the “expression level of MMP-9 gene” value [5, 20] was “−”, the “expression level of MMP-9 gene” value [5, 17] was “−” and the “expression level of MMP-9 gene” value [5, 15] was “−”. For the same compound, the “expression level of MRP8 gene” value [6, 21] was “+”, the “expression level of MRP8 gene” value [6, 22] was “+” and the “expression level of MRP8 gene” value [6, 14] was “+”. For the same compound, the “expression level of Lyz gene” value (lyzozyme (Lyz); [21]) was “+”, the “expression level of Lyz gene” value (lyzozyme (Lyz); [22]) was “+” and the “expression level of Lyz gene” value (lyzozyme (Lyz); [14]) was “+”. The “expression level of GABArp gene” value [7, 21] was “+”, the “expression level of GABArp gene” value [7, 17] was “+” and the “expression level of GABArp gene” value [7, 14] was “+”. For the same compound, the “expression level of IFNp15/p17 gene” value [8, 16] was “+/−”, the “expression level of IFNp15/p17 gene” value [8, 17] was “+/−” and the “expression level of IFNp15/p17 gene” value [8, 14] was “+”. For the same compound, the “expression level of IFNp78 gene” value [9, 18] was “−”, the “expression level of IFNp78 gene” value [9, 17] was “+/−” and the “expression level of IFNp78 gene” value [9, 14] was “+/−”. The “expression level of CD37 gene” value (CD37 antigen (CD37); [20]) was “+”, the “expression level of CD37 gene” value (CD37 antigen (CD37); [22]) was “+/−” and the “expression level of CD37 gene” value (CD37 antigen (CD37); [13]) was “+/−”. For the same compound, the “expression level of NAF1 gene” value [10, 18] was “+/−”, the “expression level of NAF1 gene” value [10, 22] was “−” and the “expression level of NAF1 gene” value [10, 14] was “−”. The “expression level of MCL1 gene” value [11, 21] was “+”, the “expression level of MCL1 gene” value [11, 17] was “+” and the “expression level of MCL1 gene” value [11, 14] was “+”. The “expression level of SPC18 gene” value [12, 21] was “+”, the “expression level of SPC18 gene” value [12, 17] was “+” and the “expression level of SPC18 gene” value [12, 14] was “+”.
For “12-o-tetradecanoylphorbol 13-acetate [TPA, reference compound]”, the “expression level of IL-1α gene” value (interleukin-1α (IL-1α); [13]) was “+”, the “expression level of IL-7r gene” value [1, 13] was “−” and the “expression level of LARC gene” value [2, 13] was “++”. For the same compound, the “expression level of MIP2β gene” value [3, 14] was “++”, the “expression level of Gro1 gene” value [4, 14] was “++” and the “expression level of MMP-9 gene” value [5, 15] was “+”. The “expression level of MRP8 gene” value [6, 14] was “+/−”, the “expression level of Lyz gene” value (lyzozyme (Lyz); [14]) was “+/−” and the “expression level of GABArp gene” value [7, 14] was “+”. The “expression level of IFNp15/p17 gene” value [8, 14] was “+”, the “expression level of IFNp78 gene” value [9, 14] was “+” and the “expression level of CD37 gene” value (CD37 antigen (CD37); [13]) was “+/−”. The “expression level of NAF1 gene” value [10, 14] was “+/−”, the “expression level of MCL1 gene” value [11, 14] was “+” and the “expression level of SPC18 gene” value [12, 14] was “+”.
